One data set has as its system Apis mellifera. The settings on record: acute, duration: 48 hours, mortality.
In another data set the test system is Bibionidae. Particulars: chronic/long-term; duration: 28 days; development.
The next data set has as its system Canidae. The settings on record: oral, Dog Other, organ weight.
A further data set has as its system Colinus virginianus. The settings on record: reproduction developmental.
For the next data set, the system named is Coturnix japonica. Particulars: acute, oral.
The subject of a further data set is Daphnia magna. The settings on record: chronic/long-term; duration: 21 days.
A further data set has as its system Lepomis macrochirus. The settings on record: acute; duration: 96 hours; mortality.
Another data set relates to Menidia beryllina. The settings on record: acute; duration: 96 hours; mortality.
A further data set has as its system Mus musculus. The settings on record: acute; oral; mortality.
For another data set, the system named is Oncorhynchus mykiss. Particulars: mortality.
Another data set relates to Palaemonetes pugio. The settings on record: acute; duration: 96 hours; mortality.
Another data set relates to Rattus norvegicus. Particulars: chronic.
A further data set has as its system Aphidius rhopalosiphi. Briefly: LR50; higher = less toxic. The settings on record: acute; duration: 48 hours; mortality.
The subject of the next data set is Typhlodromus pyri. In words: LR50; higher = less toxic. Particulars: chronic/long-term; duration: 7 days; mortality.

`COc1ncc(F)c2nc(S(=O)(=O)Nc3c(F)cccc3F)nn12` [Florasulam]: the LD50 in the data set on Apis mellifera (dermal) is over 100 µg/piece; in the data set on Apis mellifera (oral, unspecified) it was over 100 µg/piece; in the data set on Coturnix japonica (mortality), 1050 mg/kg-day; in the data set on Mus musculus, over 5000 mg/kg-day. In addition, the NOEC in the data set with Bibionidae amounted to 10 mg/L; in the data set with Daphnia magna, 23.4 mg/L; with Oncorhynchus mykiss (chronic/long-term, duration: 28 days), 119 mg/L; in the data set with Tagia sp. (chronic/long-term), 0.203 mg/kg. Besides, the NOAEL in the data set with Canidae (chronic, duration: 1 years) was 5 mg/kg-day; in the data set on Canidae (subchronic, duration: 90 days) it was 5 mg/kg-day; in the data set on Colinus virginianus, 1500 mg/kg-day; in the data set with Rattus norvegicus, over 100 mg/kg-day. The LC50 is over 938 mg/kg-day with Coturnix japonica (diet); over 100 µg/mL with Lepomis macrochirus; over 122 µg/mL in the data set on Menidia beryllina; over 100 µg/mL with Oncorhynchus mykiss (acute, duration: 96 hours); over 120 µg/mL with Palaemonetes pugio; over 1320 mg/kg in the data set on Tagia sp. (acute, duration: 14 days, mortality). Moreover, the LR50 with Aphidius rhopalosiphi and in the data set with Typhlodromus pyri was over 15 g/ha each time.
